The experiment has as its target human APJ receptor (Homo sapiens (Human), UniProt P35414). Description: Intracellular cAMP accumulation assay (APJ hcAMP, HTRF). The following applies: human APJ, cAMP accumulation; read-out: Human APJ cAMP EC50 Potency range. It counts as cell-based. The essentials: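 HEK293 cells stably expressing human APJ, 5,000 per well, incubated 30 min at rt with compound, […] and 2 μM forskolin. cAMP measured by HTRF against a cAMP standard curve as inhibition of forskolin-driven production. EC50 from variable-slope sigmoidal fit.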
In general terms: Cyclic AMP is a second messenger, typically raised through Gs and lowered through Gi signalling.

SMILES strings stand for the structures. pEC50: −log10 of the molar value.

Chain of human APJ receptor (P35414 whole entry): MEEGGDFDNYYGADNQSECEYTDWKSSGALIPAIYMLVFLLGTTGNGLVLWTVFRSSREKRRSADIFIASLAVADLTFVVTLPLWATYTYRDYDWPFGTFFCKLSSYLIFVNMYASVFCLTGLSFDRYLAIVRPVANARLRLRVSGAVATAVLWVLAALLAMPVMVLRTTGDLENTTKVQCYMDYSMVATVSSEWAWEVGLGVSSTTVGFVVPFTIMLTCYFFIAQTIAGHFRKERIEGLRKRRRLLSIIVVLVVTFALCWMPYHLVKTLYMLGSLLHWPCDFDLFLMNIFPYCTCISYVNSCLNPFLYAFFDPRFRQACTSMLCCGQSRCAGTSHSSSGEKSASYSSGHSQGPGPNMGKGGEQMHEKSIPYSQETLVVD

On to `CCCCc1nc(=O)c(S(=O)(=O)c2ccc(-c3cncc(F)c3)cc2)c(O)n1[C@@H](C)c1ccc(OC)cc1` [Example 241, 2-butyl-5-[4-(5-fluoropyridin-3-yl)benzenesulfonyl]-6-hydroxy-1-[(1S)-1-(4-methoxyphenyl)ethyl]-1,4-dihydropyrimidin-4-one], for which the pEC50 is 8.00 to 11.00.
The result for `CCCCCc1nc(=O)c(S(=O)(=O)c2ccc(-c3ccnc(F)c3C)cc2)c(O)n1[C@@H](COC)c1ccccc1` [Example 242, 5-[4-(2-fluoro-3-methylpyridin-4-yl)benzenesulfonyl]-6-hydroxy-1-[(1R)-2-methoxy-1-phenylethyl]-2-pentyl-1,4-dihydropyrimidin-4-one] reads 8.00 to 11.00.
The result for `CCCCc1nc(=O)c(S(=O)(=O)c2ccc(-c3ccnc(F)c3C)cc2)c(O)n1[C@H]1CCCc2ccccc21` [Example 243, 2-butyl-5-[4-(2-fluoro-3-methylpyridin-4-yl)benzenesulfonyl]-6-hydroxy-1-[(1S)-1,2,3,4-tetrahydronaphthalen-1-yl]-1,4-dihydropyrimidin-4-one] reads 8.00 to 11.00.
Regarding `CCCCc1nc(=O)c(S(=O)(=O)c2ccc(-c3ccnc(F)c3C)cc2)c(O)n1[C@@H](C)c1ccc(OC)cc1` [Example 244, 2-butyl-5-[4-(2-fluoro-3-methylpyridin-4-yl)benzenesulfonyl]-6-hydroxy-1-[(1S)-1-(4-methoxyphenyl)ethyl]-1,4-dihydropyrimidin-4-one], the negative-log EC50 (pEC50) is 8.00 to 11.00.
Under `CCCCCc1nc(=O)c(S(=O)(=O)c2ccc(-c3ccncc3C)cc2)c(O)n1[C@@H](COC)c1ccccc1` [Example 245, 6-hydroxy-1-[(1R)-2-methoxy-1-phenylethyl]-5-[4-(3-methylpyridin-4-yl)benzenesulfonyl]-2-pentyl-1,4-dihydropyrimidin-4-one] stands 8.00 to 11.00; under `CCCCc1nc(O)c(S(=O)(=O)c2ccc(Br)cc2)c(=O)n1[C@@H](C)c1ccc(OC)cc1` [Example 246, 5-(4-bromobenzenesulfonyl)-2-butyl-6-hydroxy-3-[(1S)-1-(4-methoxyphenyl)ethyl]-3,4-dihydropyrimidin-4-one], 8.00 to 11.00; under `CCCCCc1nc(=O)c(S(=O)(=O)c2ccc(Br)cc2)c(O)n1[C@@H](COC)c1ccccc1` [Example 247, 5-(4-bromobenzenesulfonyl)-6-hydroxy-3-[(1R)-2-methoxy-1-phenylethyl]-2-pentyl-3,4-dihydropyrimidin-4-one], 7.00 to 8.00.
For the molecule `CCCCCc1nc(=O)c(S(=O)(=O)c2ccc(-c3cncc(F)c3)cc2)c(O)n1[C@@H](COC)c1ccccc1` [Example 248, 5-[4-(5-fluoropyridin-3-yl)benzenesulfonyl]-6-hydroxy-1-[(1R)-2-methoxy-1-phenylethyl]-2-pentyl-1,4-dihydropyrimidin-4-one], the pEC50 was 8.00 to 11.00.
Under `CCCCCc1nc(=O)c(S(=O)(=O)c2ccc(-c3cccnc3C)cc2)c(O)n1[C@@H](COC)c1ccccc1` [Example 249, 6-hydroxy-1-[(1R)-2-methoxy-1-phenylethyl]-5-[4-(2-methylpyridin-3-yl)benzenesulfonyl]-2-pentyl-1,4-dihydropyrimidin-4-one] stands 8.00 to 11.00; under `CCCCCc1nc(=O)c(S(=O)(=O)c2ccc(-c3ccc(F)nc3C)cc2)c(O)n1[C@@H](COC)c1ccccc1` [Example 250, 5-[4-(6-fluoro-2-methylpyridin-3-yl)benzenesulfonyl]-6-hydroxy-1-[(1R)-2-methoxy-1-phenylethyl]-2-pentyl-1,4-dihydropyrimidin-4-one], 8.00 to 11.00.
As for `CCCCc1nc(=O)c(S(=O)(=O)c2ccc(-c3ccncc3C)cc2)c(O)n1[C@@H](COC)c1cccc(C#N)c1` [Example 251, 3-[(1R)-1-{2-butyl-6-hydroxy-5-[4-[3-methylpyridin-4-yl)benzenesulfonyl]-4-oxo-1,4-dihydropyrimidin-1-yl}-2-methoxyethyl] benzonitrile], the pEC50 is 8.00 to 11.00.
The result for `CCCCc1nc(=O)c(S(=O)(=O)c2ccc(-c3ccncc3C)cc2)c(O)n1[C@@H](CC)c1ccc2c(c1)OCO2` [Example 252, 1-[(1S)-1-(2H-1,3-benzodioxol-5-yl)propyl]-2-butyl-6-hydroxy-5-[4-(3-methylpyridin-4-yl)benzenesulfonyl]-1,4-dihydropyrimidin-4-one] reads 8.00 to 11.00.
`CCCCc1nc(=O)c(S(=O)(=O)c2ccc(-c3ccnc(F)c3C)cc2)c(O)n1[C@@H](COC)c1cccc(C#N)c1` [Example 253, 3-[(1R)-1-{2-butyl-5-[4-(2-fluoro-3-methylpyridin-4-yl)benzenesulfonyl]-6-hydroxy-4-oxo-1,4-dihydropyrimidin-1-yl}-2-methoxyethyl] benzonitrile]: the pEC50 is 8.00 to 11.00.
As for `CCCCc1nc(O)c(S(=O)(=O)c2ccc(Br)cc2)c(=O)n1[C@H](CC)c1cccc2c1OCO2` [Example 254, 3-[(1R)-1-(2H-1,3-benzodioxol-4-yl)propyl]-5-(4-bromobenzenesulfonyl)-2-butyl-6-hydroxy-3,4-dihydropyrimidin-4-one], the pEC50 is 7.00 to 8.00.
Under `CCCCc1nc(=O)c(S(=O)(=O)c2ccc(-c3cncc(F)c3)cc2)c(O)n1[C@H](CC)c1cccc2c1OCO2` [Example 255, 1-[(1R)-1-(2H-1,3-benzodioxol-4-yl)propyl]-2-butyl-5-[4-(5-fluoropyridin-3-yl)benzenesulfonyl]-6-hydroxy-1,4-dihydropyrimidin-4-one] stands 8.00 to 11.00; under `CCCCc1nc(=O)c(S(=O)(=O)c2ccc(-c3ccncc3C)cc2)c(O)n1[C@@H](CC)c1cccc2c1OCO2` [Example 256, 1-[(1S)-1-(2H-1,3-benzodioxol-4-yl)propyl]-2-butyl-6-hydroxy-5-[4-(3-methylpyridin-4-yl)benzenesulfonyl]-1,4-dihydropyrimidin-4-one], 8.00 to 11.00; under `CCCCc1nc(=O)c(S(=O)(=O)c2ccc(-c3ccnc(F)c3C)cc2)c(O)n1[C@@H](CC)c1cccc2c1OCO2` [Example 257, 1-[(1S)-1-(2H-1,3-benzodioxol-4-yl)propyl]-2-butyl-5-[4-(2-fluoro-3-methylpyridin-4-yl)benzenesulfonyl]-6-hydroxy-1,4-dihydropyrimidin-4-one], 8.00 to 11.00.
As for `CCCCc1nc(=O)c(S(=O)(=O)c2ccc(-c3cncc(F)c3)cc2)c(O)n1[C@@H](CC)c1cccc2c1OCO2` [Example 258, 1-[(1S)-1-(2H-1,3-benzodioxol-4-yl)propyl]-2-butyl-5-[4-(5-fluoropyridin-3-yl)benzenesulfonyl]-6-hydroxy-1,4-dihydropyrimidin-4-one], the pEC50 is 8.00 to 11.00.
Consider `CCCCc1nc(=O)c(S(=O)(=O)c2ccc(-c3ccncc3C)cc2)c(O)n1[C@H](CC)c1cccc2c1OCO2` [Example 259, 1-[(1R)-1-(2H-1,3-benzodioxol-4-yl)propyl]-2-butyl-6-hydroxy-5-[4-(3-methylpyridin-4-yl)benzenesulfonyl]-1,4-dihydropyrimidin-4-one], for which the pEC50 is 8.00 to 11.00.
Under `CCCCc1nc(=O)c(S(=O)(=O)c2ccc(-c3cccnc3C)cc2)c(O)n1[C@H](CC)c1cccc2c1OCO2` [Example 260, 1-[(1R)-1-(2H-1,3-benzodioxol-4-yl)propyl]-2-butyl-6-hydroxy-5-[4-(2-methylpyridin-3-yl)benzenesulfonyl]-1,4-dihydropyrimidin-4-one] stands 8.00 to 11.00.

By pEC50 is commonly meant −log10 of the EC50, conventionally taken in molar units.
